Data published in publication PMC10986512 (Microbiology Spectrum, 2024).
pEC50: −log10 of the molar value. ≈ marks a conversion by molar mass, not a printed value. Where “and” joins values, the source holds several entries; their conditions need not be identical. Equal values may be shown once. Read-outs that look alike come from different tables or passages of the source.

Experiments:
VACV [1] = assay: microbe, parasite or virus in culture; assay type: cell-based, vaccinia virus (Western Reserve strain); conditions: for pEC50: Orthopoxvirus vaccinia
MPXV = assay type: cell-based, Mpox virus (West African clade US2003, clade IIa)
in vitro [2] = assay: in vitro
RPXV = assay: microbe, parasite or virus in culture; assay type: cell-based; conditions: Rabbitpox virus, RAW264.7
CPXV = assay: microbe, parasite or virus in culture; assay type: cell-based, cowpox virus (Brighton Red strain); conditions: Cowpox virus
VACV [3] = assay type: in vivo, BALB/c mice; conditions: 21 days
VACV [4] = test system: VACV; design: species or system BALB/c mice; conditions: mouse, in vivo
VACV [5] = test system: VACV; design: species or system BALB/c mice; conditions: mouse, in vivo; remark: listed apart in the source
[6] = test system: NS5B-mediated replication of hepatitis C virus RNA; conditions: cited from earlier work
in vivo = conditions: C57BL/6, mouse
in vitro [7] = conditions: mouse, plasma
physchem = conditions: pH 7.4, aqueous buffer
[8] = rat, in vivo; cited from earlier work
[9] = dog, in vivo; cited from earlier work

O=C(NN1C(=O)[C@@H]2[C@@H]3C=C[C@@H]([C@H]4C[C@@H]34)[C@@H]2C1=O)c1ccc(C(F)(F)F)cc1 [ST-246]
SI (VACV [1]): >750 and >666.7 | pEC50 (VACV [1]): 8.00 to 9.00 | SI (MPXV): >2189.8 | CC50 (in vitro [2]): > 30 µM

C[C@@]1(O)[C@H](O)[C@@H](CO)O[C@H]1n1cc(F)c2c(N)ncnc21 [UMM-766, 7-fluoro-7-deaza-2′-C-methyladenosine]
EC50 and EC90 in MRC5 cells relative to RAW cells (VACV [1]): 3- to 15 fold | pEC50 (VACV [1]): > 6.00 | pEC50 (RPXV): > 6.00 | pEC50 (CPXV): 5.66 | pEC50 (CPXV; MRC5): 5.09 | survival (VACV [3]): 66.7% and 80% and 100% | animals that met euthanasia criteria or died (VACV [4]): two | maximum percentage weight change (VACV [4]): −30.5% and −29.3% and −24.4% | median survival (VACV [4]): 8 days | IHC labeling in nasal cavity/turbinates (VACV [5]): minimal or absent labeling | hemorrhage in the olfactory bulb (VACV [5]): completely absent | meningeal necrosis in the olfactory bulb (VACV [5]): absent in two 3-mg/kg animals and two 10-mg/kg animals | necrosis of the olfactory epithelium (nasal cavity, H&E) (VACV [5]): two animals having minimal necrosis and two with moderate necrosis | severity of IHC labeling in nasal cavity/turbinates (VACV [5]): markedly reduced | severity/degree of IHC labeling in the lung (VACV [5]): mostly mild | IHC labeling in nasal cavity/turbinates (VACV [5]; 10 mg/kg): labeling was absent | effect on NS5B-mediated replication of hepatitis C virus RNA [6]: decrease NS5B-mediated replication of hepatitis C virus RNA by chain termination | bioavailability (in vivo): 48.8% | clearance (in vivo): 154 mL/min/kg | half-life (in vivo): 2.9 h | fraction unbound (in vitro [7]): 0.844 | solubility (physchem): 3300 µg/mL (≈ 11.1 mM) | highest tolerable dose [8]: 10 mg/kg | highest tolerable dose [9]: 10 mg/kg
